Marks after values point to notes of the source that are not given here.
Tests used:
S180 = assay: Mice bearing S180, tumor weight and inhibition rate; type: in vivo, Kunming mice
Experimental: (§1) Choose mice which are in good health conditions and received S180 tumor injection 8 days ago, disinfect abdominal skin, draw ascites, mix with normal saline as ratio of 1:4 (ascites volume:normal saline volume) to make suspension. […] In all groups, subcutaneously inject 0.2 ml of the aforementioned suspension at the right anterior lobe. 2 hours after injection, mice in control group and drug groups receive test substance or suspension via intragastric administration once a day for 14 consecutive days. In positive control group, CTX is administered intraperitoneally once every other day for a total of 7 times.
as §1, with “intragastric or intravenous” for “intragastric”

pulmonary fibrosis = assay: Bleomycin-induced pulmonary fibrosis in rats; type: in vivo, SD rats; conditions: lung, 30 days
Experimental: Take 60 SD rats (200-240 g, male), randomly divide into sham operation control group (0.5% mucilage tragacanth), model control group (0.5% mucilage tragacanth), positive control group (dexamethasone, 1 mg/kg), Paliurus ramosissimus (Lour) Poir. extract (prepared according to Embodiment 1) low-dose group (0.4 g/kg), Paliurus ramosissimus (Lour) Poir. extract middle-dose group (0.8 g/kg), and Paliurus ramosissimus (Lour) Poir. extract high-dose group (1.6 g/kg) with stratification of body weight. All animals receive trachea separation under anesthesia by intraperitoneal injection of 10% chloral hydrate (350 mg/kg). Except the sham operation control group, rats in other groups receive injection of 5 mg/kg of bleomycin in 0.4 ml of normal saline solution, while rats in sham operation control group receive normal saline solution only. From the next day after surgery, test substance is given daily for 30 consecutive days. Sacrifice the animals by cervical dislocation, and take the lungs; some organs are homogenized for hydroxyproline content determination, and some are for pathological examination.
Take 60 SD rats (200-240 g, male), randomly divide into sham operation control group, model control group, positive control group (dexamethasone, 1 mg/kg), Paliurus ramosissimus (Lour) Poir. extract group (prepared according to Embodiment 1, 0.8 g/kg. op), Ligustrazine (40 mg/kg, ip)and drug combination group (Paliurus ramosissimus (Lour) Poir. Extract 0.8 g/kg, op; Ligustrazine injection40 mg/kg, ip) with stratification of body weight. All animals receive trachea separation under anesthesia by intraperitoneal injection of 10% chloral hydrate (350 mg/kg). Except the sham operation control group, rats in other groups receive injection of 5 mg/kg of bleomycin in 0.4 ml of normal saline solution, while rats in sham operation control group receive normal saline solution only. The next day after the surgery, give the test substance via intragastric administration or injection administration, test substance is given daily for 30 consecutive days. […]

TNBS induced colitis = assay: TNBS induced experimental colitis in rats; type: in vivo; conditions: 2 mg/kg
Experimental: After the animals are fasted for 24 h, perform anesthesia with sodium pentobarbital. Except the sham operation group, perform coloclysis with TNBS and 40% ethanol, and replicate experimental colitis model; 6 h after model construction, administer test substance. At the day 5 of administration, draw tail vein blood and count leukocyte. At day 6, perform urethane anesthesia, draw abdominal aortic blood and sacrifice the animals by cervical dislocation. Cut 9 cm colon from the anus, in an ice bath, cut intestine along the mesenteric edge, wash out the contents, measure the ulcer area, calculate the percentage of ulcer area; weigh the colon, scrap colonic mucosa, and determine tumor necrosis factor (TNF-α) concentration with ELISA method.

[1] = test system: experimental hepatic fibrosis; assay: Carbon tetrachloride-induced liver fibrosis in rats; type: in vivo, SD rats; conditions: 3 months
Experimental: Take 60 SD rats (200-240 g, male), randomly divide into blank control group (0.5% mucilage tragacanth), model control group (0.5% mucilage tragacanth), positive control group (dexamethasone, 1 mg/kg), Paliurus ramosissimus (Lour) Poir. extract (prepared according to Embodiment 1) low-dose group (0.4 g/kg), Paliurus ramosissimus (Lour) Poir. extract middle-dose group (0.8 g/kg), and Paliurus ramosissimus (Lour) Poir. extract high-dose group (1.6 g/kg) with stratification of body weight. Except the blank control group, rats in other groups receive subcutaneous injection of 1 ml/kg of 40% carbon tetrachloride in vegetable oil solution, 2 times a week for 3 consecutive months, while receiving high-fat diet and 5% ethanol aqueous solution. Test substance is given via intragastric administration once daily for 3 consecutive months. On the next day after drug administration, draw abdominal aortic blood, separate plasma, determine the levels of alanine aminotransferase (ALT), III procollagen (PC-III), hyaluronic acid (HA) and laminin (LH); the sacrifice the animals, and take the liver for pathological examination.
Take 60 SD rats (200-240 g, male), randomly divide into blank control group, model control group, positive control group (dexamethasone, 1 mg/kg), Paliurus ramosissimus (Lour) Poir. extract group (prepared according to Embodiment 1, 0.8 g/kg), Polyene phosphatidylcholine group, drug combination group (Paliurus ramosissimus (Lour.) Poir. Extract0.8 g/kg+Polyene phosphatidylcholine1 ml/kg) with stratification of body weight. Except the blank control group, rats in other groups receive subcutaneous injection of 1 ml/kg of 40% carbon tetrachloride in vegetable oil solution, 2 times a week for 3 consecutive months, while receiving high-fat diet and 5% ethanol aqueous solution. Test substance is given via intragastric administration once daily for 3 consecutive months. On the next day after drug administration, draw abdominal aortic blood, separate plasma, determine the levels of alanine aminotransferase (ALT), III procollagen (PC-III), hyaluronic acid (HA) and laminin (LH); the sacrifice the animals, and take the liver for pathological examination.

peritoneal macrophages = assay: Peritoneal macrophage phagocytosis of normal mice; type: in vivo, KM mice; conditions: inhibition effect positive control 0.1 g/kg, one subcutaneous injection at day 13
Experimental: Except that the mice in inhibition effect positive control group receive one dose of subcutaneous injection at day 13, mice in other groups receive test substance or suspension via intragastric administration once a day for 14 consecutive days. At day 13 and 14, apply intraperitoneal injection of 6% starch solution respectively. 1 h after the last administration at day 14, apply intraperitoneal injection of 1 ml of 5% chicken erythrocytes in saline suspension; 30 min later, sacrifice the mice by cervical dislocation, apply intraperitoneal injection of 2 ml saline, and gently massage the abdomen. 1 min later, cut open abdomen, draw 1 ml of peritoneal washings, evenly drop on two slides, place in a wet box, and incubate at 37° C. for 30 min. Rinse in saline, dry, fix with 1:1 acetone-methanol solution, stain with 4% (v/v) Giemsa-PBS for 3 min, rinse with distilled water and dry, perform microscopic examination, and calculate the percentage of phagocytosis.

Ehrlich ascites tumor = assay: Mice bearing Ehrlich ascites tumor, survival time and ascites weight; type: in vivo, Kunming mice; conditions: 40 mg/kg intraperitoneally every other day, 7 times
Experimental: Choose mice which are in good health conditions and received Ehrlich ascites tumor injection 8 days ago, disinfect abdominal skin, draw ascites, mix with normal saline to […] for future use. […] In all groups, subcutaneously inject 0.2 ml of the aforementioned suspension at the right anterior lobe. 2 hours after injection, mice in control group and drug groups receive test substance or suspension via intragastric administration once a day, administer continuously until the animal is dying. In positive control group, CTX is administered intraperitoneally once every other day for a total of 7 times. When the animal is dying, sacrifice it by cervical dislocation; the day of dying is calculated as survival time; after death, weigh, exhaust ascites, weigh again, and the difference is the weight of ascites.

[2] = test system: pylorus ligation induced gastric ulcer; assay: Pylorus ligation induced experimental gastric ulcer in rats; type: in vivo; conditions: 60 mg/kg intragastric, 3 days
Text: (§2) In all groups, mice receive test substance via intragastric administration once a day for 3 consecutive days.
as §2

transplanted tumor S 180 = conditions: control group (positive control cyclophosphamide 85 mg/kg daily)
Experimental: Take Kunming mice, subcutaneously inject 0.2 ml of S180 suspension (about 1×10^6 tumor cells) in a routine way at the right anterior lobe. 24 hours after injection, mice are randomly grouped and numbered. There are 10 mice in the control groups, and 10 mice each in test groups of high dose, middle dose, and low dose. Mice in each group receive drugs via intragastric administration once a day for a total of 14 times. In positive control group, cyclophosphamide (85 mg/kg) is given daily, and the dose, frequency, time are identical with the test groups.

[3] = Table 8, 5 mg/kg once a day, 14 days
[4] = Table 11, dexamethasone 1 mg/kg
[5] = Table 8, 1 ml/kg once a day, 14 days
[6] = Table 11, polyene phosphatidylcholine group (1 ml/kg in the combination)
[7] = Table 6, 40 mg/kg intraperitoneally every other day, 7 times
[8] = Table 8, 40 mg/kg intraperitoneally every other day, 7 times

Molecule: CC(=O)O[C@H]1C(=O)[C@@]2(C)[C@H]([C@H](OC(=O)c3ccccc3)[C@]3(O)C[C@H](OC(=O)[C@H](O)[C@@H](NC(=O)c4ccccc4)c4ccccc4)C(C)=C1C3(C)C)[C@]1(OC(C)=O)CO[C@@H]1C[C@@H]2O [Paclitaxel, paclitaxel]
- Tumor inhibition rate (%) (S180; [3]): 34.6%
- Tumor weight (S180; [3]): 0.85 ± 0.38 g

Molecule: Cc1nc(C)c(C)nc1C [Ligustrazine]
- Hydroxyproline content (mg/gpro) (pulmonary fibrosis; Table 12, 40 mg/kg ip daily): 14.6 ± 5.7 mg/gpro

Molecule: C[C@@H]1C[C@H]2[C@@H]3CCC4=CC(=O)C=C[C@]4(C)[C@@]3(F)[C@@H](O)C[C@]2(C)[C@@]1(O)C(=O)CO [Positive Control, dexamethasone]
- Ratio of ulcer area (%) (TNBS induced colitis; colon, day 6): 28.6 ± 10.5 %
- TNF-α (ng/gpro) (TNBS induced colitis; colonic mucosa, ELISA): 73.2 ± 19.6 ng/gpro
- Leukocyte count (10^9/L) (TNBS induced colitis; tail vein blood, day 5): 8.4 ± 0.9** 10^9/L
- ALT (U/L) ([1]; Table 9, dexamethasone 1 mg/kg): 456 ± 98 U/L
- HA ([1]; Table 9, dexamethasone 1 mg/kg): 280 ± 54 µg/L
- LN ([1]; Table 9, dexamethasone 1 mg/kg): 62 ± 20 µg/L
- PC-III ([1]; Table 9, dexamethasone 1 mg/kg): 20.8 ± 3.1 µg/L
- ALT (U/L) [1, 4]: 478 ± 90 U/L
- HA [1, 4]: 285 ± 57 µg/L
- LN [1, 4]: 65 ± 23 µg/L
- PC-III [1, 4]: 20.6 ± 3.8 µg/L
- Hydroxyproline content (mg/gpro) (pulmonary fibrosis; Table 10, dexamethasone 1 mg/kg daily): 13.6 ± 3.3 mg/gpro
- Hydroxyproline content (mg/gpro) (pulmonary fibrosis; Table 12, dexamethasone 1 mg/kg daily): 13.4 ± 3.7 mg/gpro

Molecule: CC(=O)O[C@H]1[C@H]2O[C@]23[C@@H]2CC[C@]4(O)C[C@@H](O)CC[C@]4(C)[C@H]2CC[C@]3(C)[C@H]1c1ccc(=O)oc1 [Cinobufotalin, cinobufotalin]
- Tumor inhibition rate (%) (S180; [5]): 43.8%
- Tumor weight (S180; [5]): 0.73 ± 0.42 g

Molecule: Polyene phosphatidylcholine
- ALT (U/L) [1, 6]: 443 ± 130 U/L
- HA [1, 6]: 284 ± 78 µg/L
- LN [1, 6]: 63 ± 18 µg/L
- PC-III [1, 6]: 27.0 ± 4.8 µg/L

Molecule: O=P1(N(CCCl)CCCl)NCCCO1 (stereo not shown) [ctx, cyclophosphamide]
- Percentage of phagocytosis (peritoneal macrophages): 0.12 ± 0.03
- Tumor inhibition rate (%) (S180; [7]): 70.8%
- Tumor weight (S180; [7]): 0.35 ± 0.58 g
- Tumor inhibition rate (%) (S180; [8]): 63.1%
- Tumor weight (S180; [8]): 0.48 ± 0.41 g
- Survival time (Ehrlich ascites tumor): 17.2 ± 2.3 days
- Weight of ascites (Ehrlich ascites tumor): 15.9 ± 1.5

Molecule: CNC(=C[N+](=O)[O-])NCCSCc1ccc(CN(C)C)o1 [ranitidine]
- Ulcer index ([2]; Table 19): 1.5 ± 0.4
- Inhibition rate (%) ([2]; Table 19, ulcer): 68.1%
- Ulcer index ([2]; Table 22): 1.8 ± 0.6
- Ulcer inhibition rate (%) ([2]; Table 22): 60.0%

Molecule: O=P1(N(CCCl)CCCl)NCCCO1 (stereo not shown) [Control group, cyclophosphamide]
- Tumor inhibition rate (transplanted tumor S 180): 38.45 ± 3.62%

Source: patent US20160256510A1, “PALIURUS RAMOSISSIMUS (LOUR.) POIR EXTRACT AND PREPARATION METHOD AND USES THEREOF” (priority 2013, published 2016)
